Measurements published in patent publication US10639277B1, “Multi-functional echogenic immunoliposomes for directed stem cell delivery to atheroma” (BOARD OF REGENTS OF THE UNIVERSITY OF TEXAS SYSTEM, priority 2009, dated 2020).

Columns and labels:
canine fetal myoblasts = assay: SDF-1 induced transwell cell migration; assay type: cell-based; details: 30 μM
Method: Cells were placed at a concentration of 5×10^4/well in the upper chamber (BD Biosciences), and the chamber was placed in a 24-well culture plate (BD Biosciences) containing culture medium and 100 nM SDF-1 for measuring the migratory capacity of myoblast cells. After 48 hours of incubation at 37° C., the medium was removed, and the insert was transferred to a second plate containing Calcein-AM solution. The plates were incubated for 90 minutes at 37° C. in a 5% CO2 incubator. The fluorescence of migrating cells was read in a fluorescence microplate reader with bottom reading capabilities at excitation/emission wavelengths of 485/530 nm. […] Apoj expression can also provide protection against apoptotic stem cell death. This finding is consistent with published results that ApoJ expression can provide some protection against apoptotic cell death. Exposure to oxidized cholesterol or oxysterol often triggers apoptosis in a variety of cells and atheroma contains abundant oxysterols such as 7-ketocholsterol. Therefore, a study was done to establish that ApoJ expression will exert protective effects against apoptotic cell death for stem cells. After incubation of vascular smooth muscle cells from the aorta of ApoJ-knockout mice or wild-type mice with 10 μg/ml 7-ketocholsterol for 24-48 the cells were examined for viability by stained with a combination of acridine orange and ethidium bromide. […]

KG-293 cells = assay: TCN-induced ApoJ expression and TNF-α induced apoptosis in KG-293 cells; assay type: cell-based, human; details: 10 ng/ml for 24- and 48-hours
Text: Recent studies have shown that ApoJ can be induced by certain growth factors such as TGF-ß translocate to the nucleus participating in apoptosis regulation. To determine whether intracellular expression of ApoJ inhibits receptor-mediated apoptosis induced by cytokines, we constructed a plasmid (pkS7) with ApoJ cDNA insert lacking the sequence for the domain of protein secretion. The non-secreted, intracellular isoform of ApoJ gene mimics the intracellular isoform inducible by TGF-ß. Under regulation by a CMV promoter with TCN-responding elements, pKS7 transfection of HEK293 cells generated a stable cell line (KG-293) with ApoJ over expression. […] KG-293 cells over expressing the intracellular form of ApoJ also underwent dramatic alterations in morphology and proliferation.

Row | Molecule | effect on SDF-1 induced migration of ApoJ-overexpressing myoblasts (canine fetal myoblasts) | apoptosis in control KG-293 cells not exposed to TCN (KG-293 cells)
1 | COc1cccc(-c2cc(=O)c3ccccc3o2)c1N [PD98059] | did not have any significant impact | –
2 | TNF-α | – | marked apoptosis
